“Also recorded” adds a separate entry of the source.
How the values were obtained:
[1] = assay type: physicochemical
Description: Next, methyl isobutyl ketone was added and then water. In some embodiments, a lower alkyl isobutyl ketone is used in place of methyl isobutyl ketone. In some embodiments, the lower alkyl is a C1-3 alkyl. In some embodiments, the lower alkyl is methyl or ethyl. The temperature was lowered to <10° C. The remaining solid was isolated and washed with methyl isobutyl ketone to produce the final DAM (denatonium acetate monohydrate).

[2] = Form stability of further XRPD patterns on storage or standing (reanalysis by XRPD); assay type: physicochemical; conditions: for XRPD form after standing on disc for 4 hours / XRPD form after standing overnight on disc: ambient lab conditions; for XRPD form after standing on disc for 4 hours: 4 hours on XRPD disc; for XRPD form after standing overnight on disc: room temperature
Source text: (§1) It was then removed from the instrument and a portion immediately analyzed by XRPD.
The frozen sample was lyophilized on the freeze dryer until all the solvent was removed. […] This was designated as Pattern 2.
A summary of the characterization data for the samples of Pattern 5 can be found in Table 9.

[3] = Gravimetric Vapor Sorption (GVS) experiments; assay type: physicochemical
Description: Several Gravimetric Vapor Sorption (GVS) experiments were carried out to investigate the behavior of DAM over a range of different relative humidity levels. […] This experiment used a similar method to GVS 1 without the steps involving 90% RH where the large mass changes were observed and equilibrium was not reached. […] Most of the mass change (1.3-1.4% increase) occurred between 0-10% RH.

[4] = Storage under stress conditions (temperature / relative humidity); assay type: physicochemical; conditions: for UPLC purity after storage: input purity 99.5%
Source text: It also lost mass when taken to relative humidity levels of less than 10%.
It also loses mass when taken to relative humidity levels of less than 10%.
as §1

CC(=O)[O-].CC[N+](CC)(CC(=O)Nc1c(C)cccc1C)Cc1ccccc1 [DAA, Denatonium Acetate, anhydrous]
degradation products [1]: either (A) lidocaine and benzyl acetate or it degraded to (B) 2-(diethylamino)-3-phenyl-N-(2,6-dimethylphenylpropionamide

CC(=O)[O-].CC[N+](CC)(CC(=O)Nc1c(C)cccc1C)Cc1ccccc1.O [DAM Pattern 2]
XRPD form after storage in closed vial ([2]; 7 weeks): Conversion to Pattern 1 by XRPD
XRPD form after storage in closed vial ([2]; 7 weeks, listed as Pattern 2): converted to Pattern 1; also recorded: consistent with Pattern 1

CC(=O)[O-].CC[N+](CC)(CC(=O)Nc1c(C)cccc1C)Cc1ccccc1.O [DAM Pattern 4]
XRPD form after storage in closed vial ([2]; 6 weeks): Conversion to Pattern 1 by XRPD
XRPD form after storage in closed vial ([2]; 6 weeks, listed as Pattern 4): conversion to Pattern 1

CC(=O)[O-].CC[N+](CC)(CC(=O)Nc1c(C)cccc1C)Cc1ccccc1.O [DAM Pattern 5]
XRPD form after standing on disc for 4 hours [2]: Conversion to Pattern 1 by XRPD
XRPD form after standing on disc for 4 hours ([2]; listed as Pattern 5): readily convert to Pattern 1; also recorded: conversion to Pattern 1; also recorded: converted to Pattern 1; also recorded: reverted to Pattern 1
stability of the pattern ([2]; ambient laboratory conditions): metastable
XRPD form after storage in closed vial ([2]; 6 weeks, listed as Pattern 5): converted to Pattern 1
XRPD form after standing overnight on disc [2]: Conversion to Pattern 1 by XRPD
XRPD form after standing overnight on disc ([2]; listed as Pattern 5): convert to Pattern 1; also recorded: reverted to Pattern 1
XRPD form under ambient laboratory conditions ([2]; within a few hours): converts to Pattern 1

CC(=O)[O-].CC[N+](CC)(CC(=O)Nc1c(C)cccc1C)Cc1ccccc1 [DAM, denatonium acetate monohydrate]
mass change ([3]; GVS 2, between 0-10% RH): 1.4%
mass change ([3]; GVS 3, between 0-10% RH): 1.3-1.4%
sample appearance after GVS ([3]; after GVS 1 (40-90-0-90-0-40)): sorption cycle. Sample had formed a solid mass with powdery
sample appearance after GVS ([3]; after GVS 2 (40-80-0-80-0-40), acetate monohydrate): remained as a free-flowing powder; also recorded: Sample remained free flowing solid
sample appearance after GVS ([3]; after GVS 3 (40-0-80-0-80-0-40), acetate monohydrate): remained as a free-flowing powder; also recorded: Sample remained free flowing solid
XRPD post GVS ([3]; post GVS 1, 2, 3): Shows no change in form by XRPD post GVS 1, 2, 3
XRPD post GVS ([3]; post GVS 2): consistent with Pattern 1
XRPD post GVS ([3]; post GVS 3): consistent with Pattern 1
hygroscopicity ([3]; relative humidity levels above 80%, acetate monohydrate): ED21356-001-001-00 is very hygroscopic especially at levels
mass behaviour at low humidity ([3]; relative humidity levels of less than 10%, acetate monohydrate): lost mass; also recorded: loses mass
XRPD form after storage at 0% RH ([4]; 0% RH, open vial in GVS instrument, 2 days, acetate monohydrate): converted to Pattern 5; also recorded: consistent with Pattern 5; also recorded: change in form to Pattern 5
observation after storage ([4]; 25° C., 96% RH, 5 days, acetate monohydrate): deliquesce; also recorded: Sample had deliquesced
XRPD after storage ([4]; 25° C., 96% RH, 7 days): Amorphous
observation after storage ([4]; 25° C., 96% RH, 7 days): deliquesced
UPLC purity after storage ([4]; 25° C., 96% RH, 7 days): UPLC purity 98.9%
XRPD after storage ([4]; 40° C., 75% RH, 7 days): Shows no change in form by XRPD after 7 days
UPLC purity after storage ([4]; 40° C., 75% RH, 7 days): UPLC purity 99.4%
observation after storage ([4]; 40° C., 75% RH, after 5 and 7 days): Remained a solid after 5 and 7 days.
